Data on 55 compounds can be found in patent US10391095B2, “DNA-PK inhibitors” (Vertex Pharmaceuticals Incorporated, priority 2012, dated 2019).

Structures are written as SMILES.

The Ki is the dissociation constant of the complex between target and ligand, obtained from inhibition or displacement. Low readings indicate tighter binding, high ones weaker binding.

The target of this test is DNA-PK (Homo sapiens, UniProt P78527). Briefly: DNA-PK inhibition assay (radiometric, 33P-ATP). The class given is biochemical. The conditions noted are these: 100 μM ATP, competitive tight-binding fit. The protocol:
Compounds were screened for their ability to inhibit DNA-PK kinase using a standard radiometric assay. Briefly, in this kinase assay the transfer of the terminal ^33P-phosphate in ^33P-ATP to a peptide substrate is interrogated. The assay was carried out in 384-well plates to a final volume of 50 μL per well containing approximately 6 nM DNA-PK, 50 mM HEPES (pH 7.5), 10 mM MgCl2, 25 mM NaCl, 0.01% BSA, 1 mM DTT, 10 μg/mL sheared double-stranded DNA (obtained from Sigma), 0.8 mg/mL DNA-PK peptide ([…] obtained from American Peptide), and 100 μM ATP. Accordingly, compounds of the invention were dissolved in DMSO to make 10 mM initial stock solutions. Serial dilutions in DMSO were then made to obtain the final solutions for the assay. A 0.75 μL aliquot of DMSO or inhibitor in DMSO was added to each well, followed by the addition of ATP substrate solution containing ^33P-ATP (obtained from Perkin Elmer). The reaction was started by the addition of DNA-PK, peptide and ds-DNA. After 45 min, the reaction was quenched with 25 μL of 5% phosphoric acid. The reaction mixture was transferred to MultiScreen HTS 384-well PH plates (obtained from Millipore), allowed to bind for one hour, and washed three times with 1% phosphoric acid. Following the addition of 50 μL of Ultima Gold™ high efficiency scintillant (obtained from Perkin Elmer), the samples were counted in a Packard TopCount NXT Microplate Scintillation and Luminescence Counter (Packard BioScience). The Ki values were calculated using Microsoft Excel Solver macros to fit the data to the kinetic model for competitive tight-binding inhibition.

With `CNC(=O)c1ccc(C(C)CNc2cc(-c3ccc(C)nc3)ncn2)c(OC)c1` (stereo not shown) [Compound 123], the Ki was < 30 nM.

Take `CCOc1ncc(-c2cc(NC[C@@H](C)c3ccccc3OC)ncn2)cn1` [Compound 125]: the Ki is < 30 nM.

`COc1ccccc1[C@H](C)CNc1cc(-c2cnc3c(cnn3CCO)c2)ncn1` [Compound 127]: the Ki is < 30 nM.

As for `COc1cc(F)c(F)cc1[C@H](C)CNc1cc(-c2ccc(C)nc2)ncn1` [Compound 128], the Ki was < 30 nM.

`CNC(=O)c1ccc(C(C)CNc2cc(-c3ccc(N4CCN(C(C)=O)CC4)nc3)ncn2)c(OC)c1` (stereo not shown) [Compound 130]: the Ki is < 30 nM.

Turning to `COc1cc(C(N)=O)ccc1C(C)CNc1cc(-c2ccc(N3CCN(C(C)=O)CC3)nc2)ncn1` (stereo not shown) [Compound 131], the Ki was < 30 nM.

Consider `C[C@H](CNc1cc(-c2ccc(N3CCN(C)CC3)nc2)ncn1)c1cccc2c1OCC2` [Compound 132], for which the Ki is < 30 nM.

Turning to `Cc1ccc(-c2cc(NC[C@@H](C)c3cccc4c3OCC4)ncn2)cn1` [Compound 134], the Ki is < 30 nM.

In the case of `CC(=O)N1CCN(c2ccc(-c3cc(NCC(C)c4ccccc4OCc4ccccc4)ncn3)cn2)CC1` (stereo not shown) [Compound 135], the Ki was < 30 nM.

With `CC(=O)N1CCN(c2ccc(-c3cc(NCC(C)c4ccccc4O)ncn3)cn2)CC1` (stereo not shown) [Compound 136], the Ki was < 30 nM.

As for `CNc1ncc(-c2cc(NC[C@@H](C)c3ccccc3OC)ncn2)cn1` [Compound 137], the Ki is < 30 nM.

With `COc1ccccc1[C@H](C)CNc1cc(-c2cnc(C)nc2)ncn1` [Compound 138], the Ki was < 30 nM.

`COCCn1ncc2cc(-c3cc(NC[C@@H](C)c4ccccc4OC)ncn3)cnc21` [Compound 139]: the Ki was < 30 nM.

In the case of `COc1ccccc1[C@H](C)CNc1cc(-c2cnc3c(cnn3CC3CC3)c2)ncn1` [Compound 140], the Ki was < 30 nM.

As for `CN1CCN(c2ccc(-c3cc(NCCc4ccccc4OC4CC4)ncn3)cn2)CC1=O` [Compound 142], the Ki is < 30 nM.

Take `COc1cscc1C(C)CNc1cc(-c2ccc(C)nc2)ncn1` (stereo not shown) [Compound 144]: the Ki was < 30 nM.

Regarding `CC(CNc1cc(-c2cnc3c(cnn3C3CCN(C)CC3)c2)ncn1)c1ccccc1OC1CC1` (stereo not shown) [Compound 145], the Ki was < 30 nM.

Take `COc1cscc1C(C)CNc1cc(-c2ccc(N3CCN(C)CC3)nc2)ncn1` (stereo not shown) [Compound 146]: the Ki is < 30 nM.

With `CCNC(=O)Cn1ncc2cc(-c3cc(NC[C@@H](C)c4ccccc4OC)ncn3)cnc21` [Compound 147], the Ki is < 30 nM.

`CC(CNc1cc(-c2cnc3c(cnn3C3CCN(C)CC3)c2)ncn1)c1ccccc1O` (stereo not shown) [Compound 151]: the Ki was < 30 nM.

As to `CCOc1ccccc1[C@H](C)CNc1cc(-c2ccc(N3CCN(C)CC3)nc2)ncn1` [Compound 152], the Ki was < 30 nM.

For `CNC(=O)c1ccc(C(C)CNc2cc(-c3cnc4c(cnn4CCO)c3)ncn2)c(OC)c1` (stereo not shown) [Compound 153], the Ki is < 30 nM.

In the case of `CNC(=O)c1ccc(C(C)CNc2cc(-c3cnc4c(cnn4CCOC)c3)ncn2)c(OC)c1` (stereo not shown) [Compound 154], the Ki is < 30 nM.

As for `CNC(=O)c1ccc(C(C)CNc2cc(-c3cnc4c(cnn4C4CCN(C)CC4)c3)ncn2)c(OC)c1` (stereo not shown) [Compound 155], the Ki was < 30 nM.

With `COc1cc(C(=O)NO)ccc1C(C)CNc1cc(-c2ccc(C)nc2)ncn1` (stereo not shown) [Compound 156], the Ki was < 30 nM.

As to `CONC(=O)c1ccc(C(C)CNc2cc(-c3ccc(C)nc3)ncn2)c(OC)c1` (stereo not shown) [Compound 157], the Ki is < 30 nM.

Consider `COc1cc(C(=O)NC2CC2)ccc1C(C)CNc1cc(-c2ccc(C)nc2)ncn1` (stereo not shown) [Compound 158], for which the Ki was < 30 nM.

`COc1cc(C(=O)NC2CCCC2)ccc1C(C)CNc1cc(-c2ccc(C)nc2)ncn1` (stereo not shown) [Compound 159]: the Ki was < 30 nM.

Consider `Cc1ccc(-c2cc(NCC(C)c3cnccc3OC3CC3)ncn2)cn1` (stereo not shown) [Compound 165], for which the Ki is < 30 nM.

On to `CNC(=O)c1ccc(C(C)CNc2cc(-c3cnc4[nH]ncc4c3)ncn2)c(OC)c1` (stereo not shown) [Compound 167], for which the Ki is < 30 nM.

As to `COc1ccccc1[C@H](C)CNc1cc(-c2cnc3c(cnn3C)c2)ncn1` [Compound 172], the Ki was < 30 nM.

Take `COc1ccccc1[C@H](C)CNc1cc(-c2cnc3c(ccn3C)c2)ncn1` [Compound 173]: the Ki was < 30 nM.

For the compound `CNC(=O)c1ccc([C@H](C)CNc2cc(-c3ccc(C)nc3)ncn2)c(OC)c1` [Compound 175], the Ki was < 30 nM.

As for `COCCn1ncc2cc(-c3cc(NCC(C)c4cnccc4OC4CC4)ncn3)cnc21` (stereo not shown) [Compound 176], the Ki is < 30 nM.

On to `CC(CNc1cc(-c2ccc(N3CCN(C)CC3)nc2)ncn1)c1cnccc1OC1CC1` (stereo not shown) [Compound 177], for which the Ki was < 30 nM.

`COc1cc(N)ccc1C(C)CNc1cc(-c2ccc(C)nc2)ncn1` (stereo not shown) [Compound 178]: the Ki is < 30 nM.

For the compound `COc1ccccc1[C@H](C)CNc1cc(-c2cnc3c(cnn3C3COC3)c2)ncn1` [Compound 179], the Ki is < 30 nM.

Turning to `Cc1ccc(-c2cc(NCC(C)c3ccccc3OCCCO)ncn2)cn1` (stereo not shown) [Compound 182], the Ki was < 30 nM.

Consider `Cc1ccc(-c2cc(NCC(C)c3ccccc3OC3CCCCC3)ncn2)cn1` (stereo not shown) [Compound 183], for which the Ki was < 30 nM.

In the case of `Cc1ccc(-c2cc(NCC(C)c3ccccc3OCC3CC3)ncn2)cn1` (stereo not shown) [Compound 186], the Ki was < 30 nM.

Turning to `CNC(=O)c1ccc(C(C)CNc2cc(-c3cnc4c(cnn4C)c3)ncn2)c(OC)c1` (stereo not shown) [Compound 188], the Ki was < 30 nM.

Take `CNC(=O)c1ccc(C(C)CNc2cc(-c3cnc4c(ccn4C)c3)ncn2)c(OC)c1` (stereo not shown) [Compound 189]: the inhibition constant Ki is < 30 nM.

Take `CNC(=O)c1ccc(C(C)CNc2cc(-c3cnc(C)nc3)ncn2)c(OC)c1` (stereo not shown) [Compound 193]: the Ki was < 30 nM.

On to `Cc1ccc(-c2cc(NCC(C)c3ccccc3OCC3CCCC3)ncn2)cn1` (stereo not shown) [Compound 194], for which the Ki was < 30 nM.

On to `Cc1ccc(-c2cc(NCC(C)c3ccccc3OCC3CCCO3)ncn2)cn1` (stereo not shown) [Compound 195], for which the Ki was < 30 nM.

For the compound `COc1ccccc1[C@H](C)CNc1cc(-c2ccc(Nc3nc[nH]n3)nc2)ncn1` [Compound 198], the Ki was < 30 nM.

Take `COc1ccccc1[C@H](C)CNc1cc(-c2ccc(NC(CO)CO)nc2)ncn1` [Compound 199]: the Ki is < 30 nM.

In the case of `CNCCCNc1ccc(-c2cc(NC[C@@H](C)c3ccccc3OC)ncn2)cn1` [Compound 201], the Ki was < 30 nM.

With `COc1ccccc1[C@H](C)CNc1cc(-c2ccc(NCC#N)nc2)ncn1` [Compound 202], the Ki was < 30 nM.

As to `COc1ccccc1[C@H](C)CNc1cc(-c2ccc(Nc3nn[nH]n3)nc2)ncn1` [Compound 203], the Ki was < 30 nM.

As to `COc1ccccc1[C@H](C)CNc1cc(-c2ccc(NCC3(O)CC3)nc2)ncn1` [Compound 204], the Ki was < 30 nM.

Take `CNCCNc1ccc(-c2cc(NC[C@@H](C)c3ccccc3OC)ncn2)cn1` [Compound 205]: the Ki is < 30 nM.

Regarding `COc1ccccc1[C@H](C)CNc1cc(-c2ccnc(NCCCO)c2)ncn1` [Compound 206], the Ki is < 30 nM.

On to `CNCCCNc1cc(-c2cc(NC[C@@H](C)c3ccccc3OC)ncn2)ccn1` [Compound 209], for which the Ki is < 30 nM.

In the case of `COc1ccccc1[C@H](C)CNc1cc(-c2ccnc(NCCSC)c2)ncn1` [Compound 210], the Ki is < 30 nM.
